Results: patent US9333172B2, “Topical skin care composition” (GALDERMA S.A., priority 2002, dated 2016)

Conditions: in vivo

Row | Percutaneous absorption of unchanged drug into the systemic circulation | Post-dose plasma concentrations | Number of subjects with quantifiable plasma concentrations (human, 8 weeks) | Subjects with quantifiable plasma concentrations (human, 8 weeks) | SMILES
1 | minimal | undetectably low | – | – | CC1(C)O[C@@H]2C[C@H]3[C@@H]4C[C@H](F)C5=CC(=O)C=C[C@]5(C)[C@@]4(F)[C@@H](O)C[C@]3(C)[C@]2(C(=O)CO)O1 [fluocinolone acetonide, (6,11,16)-6,9-difluoro-11,21-dihydroxy-16,17-[(1-methylethylidene)bis(oxy)]-pregna-1,-4-diene-3,20-dione]
2 | minimal | undetectably low | 8 | 18% | Oc1ccc(O)cc1 [hydroquinone, 1,4-benzenediol]
3 | minimal | – | – | – | CC1=C(/C=C/C(C)=C/C=C/C(C)=C/C(=O)O)C(C)(C)CCC1 [tretinoin, (all-E)-3,7-dimethyl-9-(2,6,6-trimethyl-1-cyclohexen-1-yl)-2,4,6,8-nonatetraenoic acid]
